Here are results for 22 compounds from PubChem BioAssay AID330 (DTP/NCI, 2004).

For this test, the system named is P388 leukemia ip, CD2F1 mice, survival T/C. Nature of the test: NCI In Vivo Anticancer Drug Screen. Data for tumor model P388 Leukemia (intraperitoneal) in CD2F1 (CDF1) mice. The note with it: endpoint: median survival time, higher = longer survival. In a few lines:
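Mice carrying the transplanted tumor received test compound or vehicle. Survival was recorded in each group, and the value is the treated-group measurement divided by that of the vehicle-treated control group.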

Setting [1] is: dose: 50.0 mg/kg/injection, schedule: Q01DX009 (ip), vehicle: saline with Tween-80.
Where [2] appears, read: dose: 100.0 mg/kg/injection, schedule: Q01DX009 (ip), vehicle: saline with Tween-80.
The mark [3] stands for this setting: dose: 200.0 mg/kg/injection, schedule: Q01DX009 (ip), vehicle: saline with Tween-80.
Where [4] appears, read: dose: 25.0 mg/kg/injection, schedule: Q01DX009 (ip), vehicle: saline.
[5] abbreviates: dose: 50.0 mg/kg/injection, schedule: Q01DX009 (ip), vehicle: saline.
[6] abbreviates: dose: 100.0 mg/kg/injection, schedule: Q04DX003 (ip), vehicle: saline.
The mark [7] stands for this setting: dose: 200.0 mg/kg/injection, schedule: Q04DX003 (ip), vehicle: saline.
Where [8] appears, read: dose: 6.25 mg/kg/injection, schedule: Q01DX009 (ip), vehicle: Klucel (hydroxypropylcellulose) (HPC).
Setting [9] is: dose: 12.5 mg/kg/injection, schedule: Q01DX009 (ip), vehicle: Klucel (hydroxypropylcellulose) (HPC).
[10] abbreviates: dose: 25.0 mg/kg/injection, schedule: Q01DX009 (ip), vehicle: Klucel (hydroxypropylcellulose) (HPC).
Setting [11] is: dose: 50.0 mg/kg/injection, schedule: Q01DX005 (ip), vehicle: Klucel (hydroxypropylcellulose) (HPC).
The mark [12] stands for this setting: dose: 100.0 mg/kg/injection, schedule: Q01DX005 (ip), vehicle: Klucel (hydroxypropylcellulose) (HPC).
Where [13] appears, read: dose: 200.0 mg/kg/injection, schedule: Q01DX005 (ip), vehicle: Klucel (hydroxypropylcellulose) (HPC).
Where [14] appears, read: dose: 60.0 mg/kg/injection, schedule: Q01DX005 (ip), vehicle: Klucel (hydroxypropylcellulose) (HPC).
Setting [15] is: dose: 12.5 mg/kg/injection, schedule: Q01DX009 (ip), vehicle: saline with Tween-80.
Where [16] appears, read: dose: 25.0 mg/kg/injection, schedule: Q01DX009 (ip), vehicle: saline with Tween-80.

Structures are written as SMILES. “And” between values parts separate entries of the source, which are not always exact repeats. Equal values may be shown once. Inconclusive results and toxic doses are left out.

Take `C=C(NC(=O)c1csc(-c2nc3c(cc2O)-c2nc(cs2)C(=O)NC(C(C)O)C(=O)N/C(=C\C)c2nc(cs2)C(=O)NC2CC(O)C(=O)OCc4cccc5[nH]c(c(C)c45)C(=O)SCC(NC(=O)c4csc2n4)c2nc-3cs2)n1)C(N)=O` (centres undefined): the T/C reads like this: (dose: 15.0 mg/kg/injection, schedule: Q01DX009 (ip), vehicle: Klucel (hydroxypropylcellulose) (HPC)) 100 % of control; (dose: 30.0 mg/kg/injection, schedule: Q01DX009 (ip), vehicle: Klucel (hydroxypropylcellulose) (HPC)) 99 % of control; (dose: 60.0 mg/kg/injection, schedule: Q01DX009 (ip), vehicle: Klucel (hydroxypropylcellulose) (HPC)) 91 % of control; (dose: 120.0 mg/kg/injection, schedule: Q01DX009 (ip), vehicle: Klucel (hydroxypropylcellulose) (HPC)) 88 % of control.

Take `CC(=O)C1CC2C=CC1N(C1=CC(=O)CC(C)(C)C1)C2=O` (centres undefined): the T/C by setting is: under setting [1], 108 % of control; under setting [2], 107 % of control; under setting [3], 100 % of control.

`N=C(N)c1ccc(OCCCCCCOc2ccc(C(=N)N)cc2I)cc1`: the T/C runs as follows: (dose: 3.12 mg/kg/injection, schedule: Q01DX005 (ip), vehicle: Klucel (hydroxypropylcellulose) (HPC)) 97 % of control; (dose: 6.25 mg/kg/injection, schedule: Q01DX005 (ip), vehicle: Klucel (hydroxypropylcellulose) (HPC)) 106 % of control; (dose: 12.5 mg/kg/injection, schedule: Q01DX005 (ip), vehicle: Klucel (hydroxypropylcellulose) (HPC)) 107 % of control and 97 % of control.

With `OC1COC(Sc2ncc[nH]2)C(O)C1O` (centres undefined), the T/C (dose: 60.0 mg/kg/injection, schedule: Q01DX005 (ip), vehicle: saline with Tween-80) was 97 % of control; the T/C (dose: 60.0 mg/kg/injection, schedule: Q01DX005 (ip), vehicle: saline) was 96 % of control; the T/C (dose: 120.0 mg/kg/injection, schedule: Q01DX005 (ip), vehicle: saline with Tween-80) is 97 % of control; the T/C (dose: 120.0 mg/kg/injection, schedule: Q01DX005 (ip), vehicle: saline) was 97 % of control; the T/C (dose: 240.0 mg/kg/injection, schedule: Q01DX005 (ip), vehicle: saline with Tween-80) was 94 % of control; the T/C (dose: 240.0 mg/kg/injection, schedule: Q01DX005 (ip), vehicle: saline) was 97 % of control.

Take `C=CC12COC(=O)C(=C)C1C(O)C1C(=C)C(=O)OC1C2` (centres undefined): the T/C (dose: 0.5 mg/kg/injection, schedule: Q01DX009 (ip), vehicle: saline) is 97 % of control; the T/C (dose: 1.0 mg/kg/injection, schedule: Q01DX009 (ip), vehicle: saline) is 97 % of control; the T/C (dose: 2.0 mg/kg/injection, schedule: Q01DX009 (ip), vehicle: saline) is 106 % of control; the T/C (dose: 4.0 mg/kg/injection, schedule: Q01DX009 (ip), vehicle: saline) is 110 % of control.

Consider `COc1ccc(C2(O)CC3CCC(C2)N3C)cc1` (centres undefined), for which the T/C was 93 % of control (dose: 50.0 mg/kg/injection, schedule: Q01DX005 (ip), vehicle: saline with Tween-80); 100 % of control (dose: 100.0 mg/kg/injection, schedule: Q01DX005 (ip), vehicle: saline with Tween-80); 97 % of control (dose: 200.0 mg/kg/injection, schedule: Q01DX005 (ip), vehicle: saline with Tween-80).

For `O=C(Nc1ccc(Cl)c(Cl)c1)Sc1ccc(O)cc1`, the T/C (dose: 12.5 mg/kg/injection, schedule: Q01DX009 (ip), vehicle: saline) was 91 % of control; the T/C under setting [4] was 91 % of control; the T/C under setting [1] was 96 % of control; the T/C under setting [5] is 117 % of control; the T/C under setting [2] is 91 % of control.

`CCOC(=O)/C=C/C(=O)O` (tested in a mixture with another compound): the T/C is, setting by setting: under setting [6], 100 % of control; under setting [7], 98 % of control; (dose: 400.0 mg/kg/injection, schedule: Q04DX003 (ip), vehicle: saline) 96 % of control.

Turning to `CCCCCCCCS(=O)(=O)NC`, the T/C was 117 % of control under setting [4]; 102 % of control under setting [5]; 102 % of control (dose: 200.0 mg/kg/injection, schedule: Q01DX009 (ip), vehicle: saline).

In the case of `c1cc2ccc3ccc(C4CO4)c4ccc(c1)c2c34` (centres undefined), the T/C reads like this: under setting [8], 99 % of control; under setting [9], 103 % of control; under setting [10], 101 % of control.

As for `CCC(CN1N=C(c2ccc(Cl)cc2)CCC1=O)C(=O)CCC(=O)O` (centres undefined), the T/C is, setting by setting: under setting [11], 104 % of control; under setting [12], 105 % of control; under setting [13], 113 % of control.

Regarding `O=[N+]([O-])c1ccc(S/N=C\c2ccccc2)c([N+](=O)[O-])c1`, under setting [1], the T/C is 97 % of control.

Regarding `CCN(CC)C1=C2/C=CC3=C2\C(=C/C=C\C=C/1C)CC3=O`, the T/C runs as follows: under setting [14], 95 % of control; (dose: 120.0 mg/kg/injection, schedule: Q01DX005 (ip), vehicle: Klucel (hydroxypropylcellulose) (HPC)) 98 % of control; (dose: 240.0 mg/kg/injection, schedule: Q01DX005 (ip), vehicle: Klucel (hydroxypropylcellulose) (HPC)) 96 % of control.

On to `O=P1(NNc2ncccn2)SC(NN=C2CCCCC2)=NC12CCCCC2` (centres undefined), for which the T/C by setting is: (dose: 7.5 mg/kg/injection, schedule: Q01DX005 (ip), vehicle: Klucel (hydroxypropylcellulose) (HPC)) 100 % of control; (dose: 15.0 mg/kg/injection, schedule: Q01DX005 (ip), vehicle: Klucel (hydroxypropylcellulose) (HPC)) 95 % of control; (dose: 30.0 mg/kg/injection, schedule: Q01DX005 (ip), vehicle: Klucel (hydroxypropylcellulose) (HPC)) 95 % of control; under setting [14], 100 % of control.

On to `CCN(CC)CCNc1ccc(COC(N)=O)c2sc3ccccc3c(=O)c12`, for which the T/C is, setting by setting: under setting [6], 117 % of control; under setting [7], 122 % of control.

For `c1ccc(N=NC(c2ccccc2)(c2ccccc2)c2ccccc2)cc1`, the T/C is, setting by setting: under setting [8], 110 % of control; under setting [9], 110 % of control; under setting [10], 99 % of control; (dose: 50.0 mg/kg/injection, schedule: Q01DX009 (ip), vehicle: Klucel (hydroxypropylcellulose) (HPC)) 107 % of control.

For the compound `CCN(CC)CCC(=O)c1ccccc1`, the T/C under setting [15] is 102 % of control and 89 % of control; the T/C under setting [16] is 108 % of control; the T/C under setting [4] is 97 % of control; the T/C under setting [1] is 109 % of control and 91 % of control; the T/C under setting [5] is 96 % of control; the T/C under setting [2] is 123 % of control.

As for `O=S(=O)(Cc1cccc(C(F)(F)F)c1)c1nc2cccnc2s1`, the T/C reads like this: under setting [1], 103 % of control; under setting [2], 103 % of control; under setting [3], 101 % of control.

Regarding `Cc1ccc(S(=O)(=O)C(Cc2cc(Cl)cc(Cl)c2O)C(=O)c2ccccc2)cc1` (centres undefined), the T/C under setting [11] was 101 % of control, the T/C under setting [12] was 90 % of control and the T/C under setting [13] is 92 % of control.

As to `Cc1cn(C2OC(CO)C(O)C2O)c(=O)[nH]c1=O` (centres undefined), the T/C was 90 % of control under setting [2]; 104 % of control (dose: 100.0 mg/kg/injection, schedule: Q04DX003 (ip), vehicle: saline with Tween-80); 104 % of control under setting [3]; 104 % of control (dose: 200.0 mg/kg/injection, schedule: Q04DX003 (ip), vehicle: saline with Tween-80); 100 % of control (dose: 400.0 mg/kg/injection, schedule: Q01DX009 (ip), vehicle: saline with Tween-80); 100 % of control (dose: 400.0 mg/kg/injection, schedule: Q04DX003 (ip), vehicle: saline with Tween-80).

In the case of `CC(C)(C)C1=CC(=O)C(C#N)=C(C#N)C1=O`, the T/C runs as follows: (dose: 6.25 mg/kg/injection, schedule: Q01DX009 (ip), vehicle: saline with Tween-80) 95 % of control; under setting [15], 109 % of control; under setting [16], 100 % of control.

With `COc1cc2c(c(OC)c1OC)-c1ccc(OC)c(=O)cc1[C@@H](N(C)Cc1ccccc1O)CC2`, the T/C (dose: 1.25 mg/kg/injection, schedule: Q01DX009 (ip), vehicle: Klucel (hydroxypropylcellulose) (HPC)) is 97 % of control; the T/C (dose: 2.5 mg/kg/injection, schedule: Q01DX009 (ip), vehicle: Klucel (hydroxypropylcellulose) (HPC)) is 97 % of control; the T/C (dose: 5.0 mg/kg/injection, schedule: Q01DX009 (ip), vehicle: Klucel (hydroxypropylcellulose) (HPC)) is 111 % of control; the T/C (dose: 20.0 mg/kg/injection, schedule: Q01DX009 (ip), vehicle: Klucel (hydroxypropylcellulose) (HPC)) was 166 % of control and 188 % of control.
